In patent publication US20190389843A1, “PYRROLE mTORC INHIBITORS AND USES THEREOF” (Navitor Pharmaceuticals, Inc., priority 2016, published 2019):
Structures can show the parent of a compound that is named as a salt.

Columns and labels:
[1] = system: pS6K1 in MCF7 (measure of mTORC1 activity); assay: AlphaLISA Ultra pS6K1 assay; type: cell-based; details: Homo sapiens, MCF7, 2 h, MCF-7 cells, 2 hours compound incubation
Method: (§1) Assay Protocol: • 1. […] 12,000˜16,000 cells will be seeded in 36 μL medium per well. • 2. Change the culture medium with fresh medium and incubate for another 2 hours. • 3. Add 12 μL (4λ) compounds into the cell plate by HAMILTON. Final DMSO concentration is 0.5%. Incubate for 2 hours. • 4. Aspirate 38 μL by HAMILTON, 10 μL rest per well. • 5. Add 10 μL 2× lysis buffer using HAMILTON; total volume in wells is 20 μL. Allow cells to shake for 30 min. Cover plate by plastic foil and store plate at −80° C. up to analysis. • 6. […] Add 5 ul acceptor beads into assay plate and incubation for 2 hours • 8. Add 5 ul donor beads and incubation for 2 hours • 9. Count the plate by EnSpire Multimode Plate Reader

[2] = system: pAKT in MCF7 (measure of mTORC2 activity); assay: AlphaLISA Ultra pAKT assay; type: cell-based; details: Homo sapiens, MCF7, 2 h, MCF-7 cells, 2 hours compound incubation
Method: as §1, with “16,000˜20,000” for “12,000˜16,000”, “(4×)” for “(4λ)”

| SMILES | IC50 [1] | IC50 [2] |
| --- | --- | --- |
| Cc1c(CN2CCN(c3ccccc3Cl)CC2)cc(C(=O)N2CCN(c3cccc(CCCN)c3)C[C@@H]2C)n1C [Example I-30, (S)-(4-(3-(3-aminopropyl)phenyl)-2-methylpiperazin-1-yl)(4-((4-(2-chlorophenyl)piperazin-1-yl)methyl)-1,5-dimethyl-1H-pyrrol-2-yl)methanone trifluoroacetate salt] | 3000 to 10000 nM | > 10 µM |
| Cc1c(CN2CCN(c3ccccc3C#N)CC2)cc(C(=O)N2CCN(c3cc(C#N)ccn3)CC2)n1C [Example I-65] | 10 to 1000 nM | > 3 µM |
| Cc1c(CN2CCN(c3ccccc3Cl)CC2)cc(C(=O)N2CCN(c3cc(Cl)ccn3)CC2)n1C [Example I-71] | 10 to 1000 nM | > 3 µM |
| Cc1c(CN2CCN(c3ccccc3Cl)CC2)cc(C(=O)N2CCN(c3ccc(F)c(F)c3)C[C@@H]2C)n1C [Example I-116, (S)-(4-((4-(2-chlorophenyl)piperazin-1-yl)methyl)-1,5-dimethyl-1H-pyrrol-2-yl)(4-(3,4-difluorophenyl)-2-methylpiperazin-1-yl)methanone] | 10 to 1000 nM | > 1 µM |
| Cc1c(CN2CCN(c3ccccc3Cl)CC2)cc(C(=O)N2CCn3c(nc4ccccc43)C2)n1C [Example I-91, (4-((4-(2-chlorophenyl)piperazin-1-yl)methyl)-1,5-dimethyl-1H-pyrrol-2-yl)(3,4-dihydrobenzo[4,5]imidazo[1,2-a]pyrazin-2(1H)-yl)methanone] | 10 to 1000 nM | > 5 µM |
| Cc1c(CN2CCN(c3ccccc3C#N)CC2)cc(C(=O)N2CCN(c3ccccc3C#N)CC2)n1C [Example I-23] | 10 to 1000 nM | > 10 µM |
| Cc1c(CN2CCN(c3ccccc3Cl)CC2)cc(C(=O)N2CCN(c3cccc(N=[N+]=[N-])c3)C[C@@H]2C)n1C [Example I-104, (S)-(4-(3-azidophenyl)-2-methylpiperazin-1-yl)(4-((4-(2-chlorophenyl)piperazin-1-yl)methyl)-1,5-dimethyl-1H-pyrrol-2-yl)methanone] | 1000 to 3000 nM | > 5 µM |
| Cc1c(CN2CCN(c3ncccc3Cl)CC2)cc(C(=O)N2CCN(c3ccc(F)cc3)C[C@@H]2C)n1C [Example I-92, (S)-(4-((4-(3-chloropyridin-2-yl)piperazin-1-yl)methyl)-1,5-dimethyl-1H-pyrrol-2-yl)(4-(4-fluorophenyl)-2-methylpiperazin-1-yl)methanone] | 10 to 1000 nM | > 1 µM |
| C[C@H]1CN(c2cccc(C#N)c2)CCN1C(=O)c1cc(CN2CCN(c3ccccc3C#N)CC2)cn1C [Example I-57] | 10 to 1000 nM | > 3 µM |
| Cc1c(CN2CCN(c3ccccc3C#N)CC2)cc(C(=O)N2CCN(c3ccccc3S(C)(=O)=O)CC2)n1C [Example I-21] | 1000 to 3000 nM | > 10 µM |
| Cc1c(CN2CCN(c3ncccc3Cl)CC2)cc(C(=O)N2CCN(c3cccc(C#N)c3)CC2)n1C [Example I-79, 3-(4-(4-((4-(3-Chloropyridin-2-yl)piperazin-1-yl)methyl)-1,5-dimethyl-1H-pyrrole-2-carbonyl)piperazin-1-yl)benzonitrile] | 10 to 1000 nM | > 3 µM |
| Cc1ccnc(N2CCN(C(=O)c3cc(CN4CCN(c5ccccc5Cl)CC4)c(C)n3C)CC2)c1 [Example I-70] | 10 to 1000 nM | > 3 µM |
| Cc1c(CN2CCN(c3ccccc3Cl)CC2)cc(C(=O)N2CCN(c3ccccc3)C[C@@H]2C)n1CCCN [Example I-29, (S)-(1-(3-aminopropyl)-4-((4-(2-chlorophenyl)piperazin-1-yl)methyl)-5-methyl-1H-pyrrol-2-yl)(2-methyl-4-phenylpiperazin-1-yl)methanone dihydrochloride salt] | 3000 to 10000 nM | > 10 µM |
| Cc1c(CN2CCN(c3ccccc3Cl)CC2)cc(C(=O)N2CCn3ncc(-c4ccccc4)c3C2)n1C [Example I-35, (4-((4-(2-Chlorophenyl)piperazin-1-yl)methyl)-1,5-dimethyl-1H-pyrrol-2-yl)(3-phenyl-6,7-dihydropyrazolo[1,5-a]pyrazin-5(4H)-yl)methanone] | 1000 to 3000 nM | > 10 µM |
| Cc1c(CN2CCN(c3ccccc3Cl)CC2)cc(C(=O)N2CCN(c3ncccn3)C[C@@H]2C)n1C [Example I-74, (S)-(4-((4-(2-chlorophenyl)piperazin-1-yl)methyl)-1,5-dimethyl-1H-pyrrol-2-yl)(2-methyl-4-(pyrimidin-2-yl)piperazin-1-yl)methanone] | 1000 to 3000 nM | > 10 µM |
| Cc1c(CN2CCN(c3ccccc3N=[N+]=[N-])CC2)cc(C(=O)N2CCN(c3ccccc3)CC2)n1C [Example I-97, (4-((4-(2-azidophenyl)piperazin-1-yl)methyl)-1,5-dimethyl-1H-pyrrol-2-yl)(4-phenylpiperazin-1-yl)methanone] | 1000 to 3000 nM | > 5 µM |
| Cc1cccc(N2CCN(C(=O)c3cc(CN4CCN(c5ccccc5Cl)CC4)c(C#N)n3C)CC2)n1 [Example I-38] | 10 to 1000 nM | > 3 µM |

Now from value to molecule:

| IC50 [1] | IC50 [2] | SMILES |
| --- | --- | --- |
| 3000 to 10000 nM | > 10 µM | C[C@@H]1CN(c2ccccc2)CCN1C(=O)c1cc(CN2CCN(c3ccccc3Cl)CC2)cn1C [Example I-137, (R)-(4-((4-(2-chlorophenyl)piperazin-1-yl)methyl)-1-methyl-1H-pyrrol-2-yl)(2-methyl-4-phenylpiperazin-1-yl)methanone] |
| 1000 to 3000 nM | > 10 µM | Cc1c(CN2CCN(c3ccccc3C#N)CC2)cc(C(=O)N2CCCN(c3ccc(F)cc3)CC2)n1C [Example I-50, 2-(4-((5-(4-(4-Fluorophenyl)-1,4-diazepane-1-carbonyl)-1,2-dimethyl-1H-pyrrol-3-yl)methyl)piperazin-1-yl)benzonitrile] |
| 3000 to 10000 nM | > 10 µM | Cc1c(CN2CCN(c3ccccc3Cl)CC2)cc(C(=O)N2CCCN(c3cccc(C#N)c3)CC2)n1C [Example I-40, 3-(4-(4-((4-(2-chlorophenyl)piperazin-1-yl)methyl)-1,5-dimethyl-1H-pyrrole-2-carbonyl)-1,4-diazepan-1-yl)benzonitrile] |
| 10 to 1000 nM | > 3 µM | Cc1c(CN2CCN(c3ncccc3Cl)CC2)cc(C(=O)N2CCN(c3ccc(F)cc3)CC2)n1C [Example I-80, (4-((4-(3-Chloropyridin-2-yl)piperazin-1-yl)methyl)-1,5-dimethyl-1H-pyrrol-2-yl)(4-(4-fluorophenyl)piperazin-1-yl)methanone] |
| 3000 to 10000 nM | > 10 µM | O=C(c1cc(CN2CCN(c3ccccc3Cl)CC2)cn1CCCOC1CCCCO1)N1CCN(c2ccccc2)CC1 (stereo not shown) [Example I-147] |
| 3000 to 10000 nM | > 10 µM | COCCn1cc(CN2CCN(c3ccccc3Cl)CC2)cc1C(=O)N1CCN(c2ccccc2F)CC1 [Example I-141] |
| 1000 to 3000 nM | > 10 µM | Cn1cc(CN2CCC3(CCN(c4ccccc4Cl)C3)C2)cc1C(=O)N1CCN(c2ccc(F)cc2)CC1 (stereo not shown) [Example I-128] |
| 10 to 1000 nM | > 1 µM | C[C@H]1CN(c2ccccc2C#N)CCN1C(=O)c1cc(CN2CCN(c3ccccc3Cl)CC2)cn1C [Example I-121, (S)-2-(4-(4-((4-(2-chlorophenyl)piperazin-1-yl)methyl)-1-methyl-1H-pyrrole-2-carbonyl)-3-methylpiperazin-1-yl)benzonitrile] |
| 1000 to 3000 nM | > 3 µM | C[C@H]1CN(c2ccccc2)CCN1C(=O)c1cc(CN2CCN(c3ccccc3Cl)CC2)cn1C [Example I-136, (S)-(4-((4-(2-chlorophenyl)piperazin-1-yl)methyl)-1-methyl-1H-pyrrol-2-yl)(2-methyl-4-phenylpiperazin-1-yl)methanone] |
| 10 to 1000 nM | > 1 µM | Cc1c(CN2CCN(c3ccccc3C#N)CC2)cc(C(=O)N2CCN(c3ccc(F)cc3)CC2)n1C [Example I-55] |
| 10 to 1000 nM | > 3 µM | Cn1cc(CN2CCN(c3ccccc3C#N)CC2)cc1C(=O)N1CCN(c2ccccc2)CC1 [Example I-124, 2-(4-((1-methyl-5-(4-phenylpiperazine-1-carbonyl)-1H-pyrrol-3-yl)methyl)piperazin-1-yl)benzonitrile] |
| 10 to 1000 nM | > 3 µM | Cc1c(CN2CCN(c3ccccc3Cl)CC2)cc(C(=O)N2CCN(c3ccc(F)c(C#N)c3)CC2)n1C [Example I-105, 5-(4-(4-((4-(2-Chlorophenyl)piperazin-1-yl)methyl)-1,5-dimethyl-1H-pyrrole-2-carbonyl)piperazin-1-yl)-2-fluorobenzonitrile] |
| 3000 to 10000 nM | > 10 µM | Cn1cc(CN2CCN(c3ccccc3C#N)CC2)cc1C(=O)N1CCN(c2nnccc2C#N)CC1 [Example I-17] |
| 1000 to 3000 nM | > 3 µM | Cn1cc(CN2CCN(c3ccccc3Cl)CC2)cc1C(=O)N1CCN(c2ccccc2)CC1 [Example I-144] |
| 10 to 1000 nM | > 10 µM | Cn1c(C(=O)N2CCN(c3ccccc3)CC2)cc(CN2CCN(c3ccccc3Cl)CC2)c1C#N [Example I-36] |
